Measurements published in patent US20190111107A1, “METHODS FOR MODULATING INTESTINAL MICROBIOTA” (DEFENSIN THERAPEUTICS APS, priority 2016, published 2019).
“Also recorded” adds a separate entry of the source. Positions of bridges follow the written chain, without caps; N, C: chain ends. No end group written: not given here.

Tests used:
[1] = test system: Dextran Sodium Sulphate (DSS) induced colitis; experiment: Acute 10-day Dextran Sodium Sulphate (DSS) induced colitis model, hBD-2-albumin fusion C-terminal; type: in vivo, mice; conditions: active control
Procedure: To determine and assess the anti-inflammatory effect of “hBD-2-albumin fusion C-terminal” in an acute 10-day Dextran Sodium Sulphate (DSS) induced colitis model in mice.
Treatment regimen: “hBD-2-albumin C-terminal” was administered intravenously via the tail vein or subcutaneously with the use of a sterile 25G needle in a dosing volume of 10 ml/kg body weight. The animals received 1 dose daily for 10 […] days. The active control Prednisolone (Pred) was given orally by gavage at a dose of 1 mg/kg in a dosing volume of 10 ml/kg body weight OD.

mice fed a high fat diet = experiment: Prophylactic treatment with defensins in mice fed a high fat diet: weight, lean/fat mass, glucose homeostasis; type: in vivo, C57/BL/6J mice; conditions: for weight gain compared with HFD reference group: 10 week study, defensin in HFD, 1,2mg hBD2 per kg mouse per day, HD5 equimolar; for visceral fat (eWAT) compared with HFD group / liver weight: at termination; for liver weight: vs HFD and LFD groups; for glucose-stimulated insulin secretion compared with HFD control mice: during the glucose challenge; for Glucose Tolerance test compared with HFD group: oral glucose tolerance test; for HOMA-IR index compared with HFD group: week 9
Procedure: Schematic outline of the experimental set up for investigating the effects of mammalian alfa and/or beta defensins on mice metabolism. At week −1, the C57/BL/6J mice were divided in groups and cages, so that there were 3 mice per cage and cages per group. Between week −1 and 0, the mice were clinically examined by magnetic resonance scan to estimate fat distribution. […] At week 4, in addition to analysis of the microbiota, the mice were scanned and blood glucose and insulin levels were measured. […] At week 7, insulin tolerance test (ITT) was conducted. At week 8, oral glucose tolerance test (OGTT) and glucose-stimulated insulin secretion (GSIS) were conducted. At week 9 (termination), several analyses were conducted, in particular the mice were weighed and scanned, and plasma composition and microbiota composition of colon, cecum and small intestine were assessed.
Mice: Mice were housed in trios, 4 cages per group. Feed intake was registered daily just before lights were turned off (6 pm). Individual mice were subjected to experimental procedures in altered order both group and cage wise. Mice were kept at room temperature under a 12-hour light/dark cycle at SPF standard conditions.
Diets: For dosing, the average weight was estimated to be 25 grams per mouse. They eat approximately 3 grams of feed per mouse per day.
Treatment regime (FIG. 1A): Mice were fed either a high fat diet (HFD) or a low fat (LF) control diet. The HFD contains 4 subgroups; 1 hBD2, 1 HD5, 1 hBD2/HD5 and 1 standard HFD without supplementation of defensins. Defensin concentration is 1,2mg hBD2 per kg mouse per day. HD5 is given in equimolar concentration to hBD2.

diet-induced obese mice = experiment: Interventional treatment with defensins in diet-induced obese mice: weight, fat percentage, glucose homeostasis; type: in vivo, C57/BL/6J mice; conditions: for fat percentage / change in fat percentage compared with HFD control: 4 weeks after dietary intervention; for Glucose Tolerance Test after start of intervention: OGTT repeated biweekly from week 13-0; for Insulin Tolerance Test: insulin sensitivity compared with HFD control group: week 9, p<0.05
Text: FIG. 1B. Schematic outline of the experimental set up for investigating the effects of mammalian alfa and/or beta defensins on mice metabolism. At week −1, the C57/BL/6J mice arrived. At week 0 feces was collected. During run-in between week 0 and week 12 the mice were fed a high fat diet. At week 12 the mice were clinically examined by magnetic resonance scan to estimate fat distribution, feces was collected and oral glucose tolerance test (OGTT) and glucose-stimulated insulin secretion (GSIS) performed. At week 13-0 the mice were divided in groups and cages with 4 mice percage and 3 cages per group. At week 0, 12 and 13-10, the microbiome of the faeces was analysed. At week 13-2, 13-4, 13-6, 13-8 and 13-10 the mice were scanned and blood glucose and insulin levels were measured. At week 13-9, insulin tolerance test (ITT) was conducted. At week 13-10 (termination), several analyses were conducted, in particular the mice were weighed and scanned, and plasma composition and microbiota composition of colon, cecum and small intestine were assessed. In addition, iWAT, eWAT and liver weight were measured.
Mice and diets. The experiment elucidates the effect of hBD-2 and HD5 in the treatment of metabolic syndrome (MetS) in diet-induced obese mice. A run-in period of 13 weeks where mice were fed a very HFD (60% energy from fat) preceded the intervention. Only mice meeting the criteria of a minimum of 12 gram weight gain (approximately 50% of initial bodyweight) during the run-in period were included in the final analyses. […] They were exposed to all experimental tests, but excluded from the analyses.
Treatment regimen (FIG. 1B). Before the intervention all mice were MR scanned and an OGTT was performed. Cages of mice were allocated to experimental groups based on their fat mass. All subsequent measures were paired with data from the same mouse before the intervention.
A LFD (low fat diet) reference group was running in parallel. As controls for the intervention 2 additional groups were included: 1 very HFD and 1 LFD. Experimental mice stayed on the very HFD during the intervention. The mice were on the experimental diet for 10 weeks. They were co-housed throughout the experiment, 4 mice per cage, 3 cages per group. All tests ran over 3 days, 1 cage per group per day.

[2] = Pharmacokinetic study of hBD-2 after single oral gavage; type: in vivo, female NMRI mice
Procedure: FIG. 28. Pharmacokinetic data following oral administration of 4 mg/kg hBD-2 to female NMRI mice. […] The results are given as group mean +/−SEM.
Pharmacokinetic study to determine oral bioavailability and establish pharmacokinetic profile of hBD-2 following single oral gavage of 4 mg/kg administration to NMRI mice.
Treatment regimen: 21 female NMRI mice were dosed by oral gavage 5 ml/kg using a gavage tube and a 1 ml syringe according to the individual body weight obtained on the day of dosing. Urine was strived sampled at random time points by gently massaging the inguinal area of the abdomen. The first blood sample was taken using a submandibular sampling method. The second blood sample was collected from Isoflurane anaesthetised mice. Intestinal samples were taken after euthanasia. The abdomen of each mouse was opened and three sections (jejunum, duodenum, and colon) of the intestines were sampled.

intestinal microbiota = experiment: Longitudinal 16S characterization of intestinal microbiota under prophylactic defensin treatment; type: in vivo, mice
Text: FIG. 21A and 21B. The figures illustrate changes from week 1 (Wk1) to week 10 (Wk10) for the four treatments in Example 1: High fat diet with HD5-HF HD5; high fat diet with hBD2−HD hBD2; High fat diet—no treatment: HF; Low fat diet: LF. Weighted unifrac analysis of microbiota at week 1 (21A) and week 10 (21 B) i.e. relative abundance of bacterial species. […] Abbreviations: Wk 1—week 1; W10—week 10.
FIG. 21C. Illustration of the species of microbiota contributing to the change. […] Allobaculum is a short chain fatty acid producing species. Lactobacillus is a bacteria with anti-inflammatory properties.
Microbial analyses were carried out to study the microbiota of the intestine. Longitudinal 16S characterization was conducted on 4 paired samples from 60 mice, 240 samples in total. Each mouse was sampled prior to diet change, 1 week post diet change, 4 weeks post diet change and at termination, thus ensuring a thorough characterization of the faecal microbiota as a result of defensin treatment.

isolated hepatocytes = conditions: Liu et al. (2008); cited from earlier work

With `C[C@]12C=CC(=O)C=C1CC[C@@H]1[C@@H]2[C@@H](O)C[C@@]2(C)[C@H]1CC[C@]2(O)C(=O)CO` [Prednisolon, Prednisolone] the DAI ([1]; 1 mg/kg orally by gavage daily, p<0.05) was “significant inhibition of the DAI on day 9”, the “histological injury in the proximal part of the colon” value ([1]; 1 mg/kg orally daily) was “failed to significantly reduce histological injury in the proximal part of the colon” and the “histological injury in the distal colon” value ([1]; 1 mg/kg orally daily, p<0.01) was “did reduce the injury in the distal colon”.
In the case of “GIGDPVTCLKSGAICHPVFCPRRYKQIGTCGLPGTKCCKKP (disulfide 8-37, 15-30, 20-38 (inferred)) [hBD-2, human beta defensin 2]”, the “weight gain compared with HFD reference group” value (mice fed a high fat diet) is reported as “gained significantly less weight than the HFD reference group”, the “share of defensin-fed mice with a Body Fat Percent resembling LFD reference mice” value (mice fed a high fat diet; 60% HFD) is reported as 50% and the “visceral fat mass of the best protected mice compared with LFD reference mice” value (mice fed a high fat diet; 60% HFD) is reported as “same or smaller visceral fat mass than LFD reference mic”. For the same compound, the “lean mass gained at the end of the study compared with HFD group” value (mice fed a high fat diet; HFD plus hBD-2 vs HFD) was “gained the same amount of lean mass”, the “fat mass at the end of the study compared to the LFD group” value (mice fed a high fat diet; HFD plus hBD-2 vs LFD, p=0.25) was “trended towards increased fat mass compared to the LFD group” and the “visceral fat (eWAT) compared with HFD group” value (mice fed a high fat diet) was “significantly less visceral fat (eWAT) than the HFD group”. For the same compound, the liver weight (mice fed a high fat diet) was “no statistical difference between the three groups in terms of liver weight”, the “Glucose Stimulated Insulin Secretion: insulin concentration compared with LFD group” value (mice fed a high fat diet; during the GTT, week 7) was “higher but not significantly different insulin concentration than the LFD group; also recorded: higher but not significantly different insulin concentration from the LFD group” and the “glucose-stimulated insulin secretion compared with HFD control mice” value (mice fed a high fat diet) was “glucose stimulated insulin response during the glucose challenge was improved”. For the same compound, the “amount of fat mass gained by the HFD group compared to the HFD plus hBD-2 group” value (mice fed a high fat diet; first analysis, p=0.005) was 2 times, the “Insulin Tolerance test: compared with LFD reference group” value (mice fed a high fat diet; mouse, in vivo) was “no statistical significant difference between the LFD reference group and the HFD plus hBD-2 group” and the “Insulin Tolerance test: insulin sensitivity compared with HFD group” value (mice fed a high fat diet; mouse, in vivo) was “significantly more sensitive to insulin than the HFD group”. The “Glucose Tolerance test compared with HFD group” value (mice fed a high fat diet; week 7) was “slightly prolonged glucose clearance but reached significantly lower glucose levels than the HFD group”, the “Glucose Tolerance test compared with HFD group” value (mice fed a high fat diet; week 7, listed as hBD2) was “Glucose tolerance was markedly improved compared to HFD control mice” and the “Five Hour Fasting insulin: HFD group compared with HFD plus hBD-2 group” value (mice fed a high fat diet; p=0.057) was “borderline significantly higher fasting insulin than the HFD plus hBD-2 group”. For the same compound, the “Five Hour Fasting insulin: LFD compared with HFD plus hBD-2 group” value (mice fed a high fat diet; p=0.17) was “no significant difference between the LFD and HFD plus hBD-2 groups”, the “amount of fat mass in percent of total body weight gained by the HFD group compared to the HFD plus hBD-2 group” value (mice fed a high fat diet; re-analysis, p=0.005) was “two times” and the “HOMA-IR index compared with HFD group” value (mice fed a high fat diet) was “statistically significantly lower”. For the same compound, the “fat percentage / change in fat percentage compared with HFD control” value (diet-induced obese mice) was “significantly smaller”, the “Glucose Tolerance Test after start of intervention” value (diet-induced obese mice) was “smaller peak in blood glucose as well as a faster clearance of glucose already after 2 weeks” and the “obese and glucose intolerant mice that significantly improved their glucose tolerance” value (diet-induced obese mice; following 2 weeks of intervention) was 7/8. The “visceral fat (eWAT) at termination compared with HFD control” value (diet-induced obese mice; mouse, in vivo) was “no significant difference in visceral fat (eWAT) between the HFD fed groups”, the “weight gain the first 4 weeks post dietary intervention compared with standard HFD group” value (diet-induced obese mice; p=0.07) was “tended to gain less weight the first 4 weeks post dietary intervention, although not significantly” and the “weight gain from week 4 to the end of the study period compared with standard HFD group” value (diet-induced obese mice; p=0.82) was “gained similar weight as the standard HFD group”. For the same compound, the “Insulin Tolerance Test: insulin sensitivity compared with HFD control group” value (diet-induced obese mice) was “more insulin sensitive compared to the HFD control group”, the “share of the group with a smaller fat percentage than before the intervention” value (diet-induced obese mice; weeks 4 post dietary intervention) was about 75% and the “systemic availability after oral dosing” value ([2]; 4 mg/kg oral, mice) was “not systemically available”. The “time hBD2 remains detectable in the colon content after administration” value ([2]; oral 4 mg/kg) was “up to 360 minutes”.
In the case of “human intestinal alpha defensin 5 (ATCYCRTGRCATRESLSGVCEISGRLYRLCCR; listed as Homo sapiens) [HD5]”, the “weight gain compared with HFD reference group” value (mice fed a high fat diet) is reported as “gained less weight than HFD-fed control mice (FIG. 17A), although the effect was not statistically significant”, the “visceral fat (eWAT) compared with HFD group” value (mice fed a high fat diet) is reported as “borderline less visceral fat” and the liver weight (mice fed a high fat diet) is reported as “No statistically significant difference with respect to liver weight”. The “glucose-stimulated insulin secretion compared with HFD control mice” value (mice fed a high fat diet) was “no significant improvement”, the “Insulin Tolerance test: insulin sensitivity compared with HFD group” value (mice fed a high fat diet; mouse, in vivo) was “no significant improvement” and the “fat % compared with HFD-fed control mice” value (mice fed a high fat diet; mouse, in vivo) was “borderline less fat %”. For the same compound, the “feed efficiency compared with HFD-fed control mice” value (mice fed a high fat diet; mouse, in vivo) was “tendency towards lower feed efficiency”, the “Glucose Tolerance test compared with HFD group” value (mice fed a high fat diet; week 7) was “no significant improvement” and the “HOMA-IR index compared with HFD group” value (mice fed a high fat diet) was “no significant improvement”. For the same compound, the “microflora composition (weighted unifrac analysis) relative to LFD and non-treated HFD groups” value (intestinal microbiota; after 10 weeks, oral HD5 in HFD) was “gradually approached the bacterial flora of mice fed a LFD; also recorded: partial normalization of the microflora”, the “abundance of bacterial genera in the intestinal microbiota compared with non-treated HFD mice” value (intestinal microbiota; at termination) was “increased abundance of Allobaculum and Lactobacillus and a decrease in abundance of Clostridium” and the “fat percentage / change in fat percentage compared with HFD control” value (diet-induced obese mice) was “significantly lower fat percentage”. The “fat percentage of total body weight over time” value (diet-induced obese mice; 10 weeks intervention) was “tendency of decreasing fat percentage”, the “weight gain after dietary intervention compared with HFD control” value (diet-induced obese mice; 10 weeks on experimental diet) was “gained significantly less weight than the HFD control” and the “Glucose Tolerance Test after start of intervention” value (diet-induced obese mice) was “improved over time”. For the same compound, the “visceral fat (eWAT) at termination compared with HFD control” value (diet-induced obese mice; mouse, in vivo) was “not significantly different”, the “weight of the liver at termination compared to the HFD control” value (diet-induced obese mice; mouse, in vivo) was “tended to be decreased” and the “Insulin Tolerance Test: insulin sensitivity compared with HFD control group” value (diet-induced obese mice) was “more insulin sensitive than the HFD control”.
In the case of human neutrophil peptide 1 [HNP-1], the “inhibition of glycogenolysis and gluconeogenesis” value (isolated hepatocytes) is given as “able to inhibit glycogenolysis and gluconeogenesis in isolated hepatocytes”.
In the case of “human neutrophil peptide 2 (CYCRIPACIAGERRYGTCIYQGRLWAFCC; ends and bridges not checked; cysteine pairing not given here; UniProt P59665 66-94, looked up) [HNP-2, α-defensin produced by leucocytes]”, the “inhibition of glycogenolysis and gluconeogenesis” value (isolated hepatocytes) is given as “able to inhibit glycogenolysis and gluconeogenesis in isolated hepatocytes”.
